Entries after “also recorded” stand apart in the source; their conditions may differ.

Common to all, as to type: cell-based, human
One series deals with miR-130/301 family. Kind of series: RT-qPCR of miR-130/301 family members after transfection of oligonucleotide inhibitors (specificity), PAECs. As to conditions: normoxia and hypoxia. An excerpt: FIGS. 14A-14C show the comparison of the specificity of miR-130/301 oligonucleotide inhibitors. (FIG. 14A) Overview of the miRNA silencing approach using seed-targeting tiny locked nucleic acid (LNA) molecules. Tiny LNAs were designed as fully LNA-modified oligonucleotides complementary to the seed region of the miR-130/301 family. The high binding affinity of tiny LNA enables functional inhibition of co-expressed members of miRNA seed families, which leads to de-repression of target mRNAs. Sequences shown in FIG. 14A are miR-130a (SEQ ID NO: 4), miR-130b (SEQ ID NO: 5), miR-301a (SEQ ID NO: 6), miR-301b (SEQ ID NO: 7) and tiny-LNA-130 ([…] SEQ ID NO: 3). […] In the setting of exposure to hypoxia (0.2% O2; 24 h) or normoxia (21% O2; 24 h), expression levels of miR-130/301 family members in PAECs (FIG. 14B) and PASMCs (FIG. 14C) were quantified after transfection with anti-miR-130a versus control (anti-miR-NC) (left panels) or tiny-LNA-130 versus control (tiny-LNA-NC) (right panels). […]
Cells were homogenized in 2 ml of QiaZol reagent (Qiagen). […] Total RNA concentration was determined using a ND-1000 micro-spectrophotometer (NanoDrop Technologies).
Mature miRNA expression was evaluated using TaqMan MicroRNA Assays (Life Technologies/Applied Biosystems) and the Applied Biosystems 7900HT Fast Real Time PCR device (Life Technologies/Applied Biosystems). […]

For the next series, the system named is PAECs. Kind of series: Proliferation of PAECs (cell counting, BrdU incorporation, PCNA). An excerpt: (§1) Pre-miRNA oligonucleotides (pre-miR-130a, pre-miR-204, pre-miR-424, and pre-miR-503 and negative control pre-miR-NC1 and premiR-NC2, Life Technologies), anti-miRNAs oligonucleotides (anti-miR-130a and anti-miR-NC, ThermoScientific), tiny LNA oligonucleotides (tiny-130: 5′-[…]-3′ (SEQ ID NO: 3), and tiny-NC 5′-[…]-3′ (SEQ ID NO: 51), Exiqon), siRNAs (PPARγ and scrambled control, Santa Cruz Biotechnology; HIF-1α, HIF-2α, and scrambled control, Life Technologies) were commercially purchased. PAECs and PASMCs were plated and transfected 24 h later at 70-80% confluence using pre-miRNA (5 nM), anti-miRNA (20 nM), tiny-LNA (20 nM) or siRNA (25 nM) with Lipofectamine 2000 reagent (Life Technologies), according to the manufacturers' instructions.
Exponentially growing cells were transfected, collected at the indicated times and counted.
(§2) Cells were lysed in RIPA buffer (Santa Cruz Biotechnology) and the protein concentration determined using a Bradford assay (Biorad). Protein lysate ([…]) were resolved by SDS-PAGE and transferred onto a PVDF membrane (Biorad). Membranes were blocked in 5% non-fat milk in TN buffer (50 mM Tris-HCl pH 7.4, 150 mM NaCl) and incubated in the presence of the primary and then secondary antibodies. After washing in TN buffer containing 0.1% Tween, immunoreactive bands were visualized with the ECL system (Amersham Biosciences). […] Primary antibodies for STAT3 (#9139) and P-STAT3 (Tyr-705; #9145) were purchased from Cell Signaling. Primary antibodies against actin (ab 3280), α-smooth-muscle-actin (ab 32575), CD31 (ab28364), and PCNA (ab 29) were obtained from Abcam. Appropriate secondary antibodies (anti-rabbit and anti-mouse) coupled to HRP were used (Santa Cruz Biotechnology).
Background: Incorporation of labelled thymidine or its analogues reports DNA synthesis.

The test system of a further series is PASMCs. Kind of series: Gene/miRNA expression in transfected or drug-treated PASMCs (immunoblotting, RT-qPCR).
Text: as §1
Primary human pulmonary arterial endothelial cells (PAECs) were purchased and propagated in EGM-2 cell culture media (Lonza). Experiments were performed at passages 3 to 6. Primary human pulmonary arterial smooth muscle cells (PASMCs) were purchased and propagated in SmGM-2 cell culture media (Lonza). Experiments were performed at passages 3 to 9. HEK293T cells (American Type Culture Collection) were used and cultivated in DMEM containing 10% fetal bovine serum (FBS). Cells were cultured at 37° C. in a humidified 5% CO2 atmosphere. A modular hypoxia chamber at 0.2% oxygen, 94.8% nitrogen and 5% carbon dioxide was used during 24 h for hypoxic conditions. Cultured cells were exposed to recombinant human IL-1α at 10 ng·mL-1 (Peprotech). Recombinant human IL-6 (Peprotech) was used at 100 ng·mL-1. Rosiglitazone (Sigma) was used at 10 μM.
Mature miRNA expression was evaluated using TaqMan MicroRNA Assays (Life Technologies/Applied Biosystems) and the Applied Biosystems 7900HT Fast Real Time PCR device (Life Technologies/Applied Biosystems). Expression levels were normalized to RNU48 or snoR55 for human or mouse experiments, respectively, and calculated using the comparative Ct method (2^−ΔΔCt) as we previously described (1).
Messenger RNAs were reverse transcribed using the Multiscript RT kit (Life Technologies) to generate cDNA. cDNA was amplified via fluorescently labeled Taqman primer sets using an Applied Biosystems 7900HT Fast Real Time PCR device, as we previously described (1). Fold-change of RNA species was calculated using the formula (2^−ΔΔCt), normalized to actin expression.
as §2

With “tiny-LNA-130: fully LNA-modified tiny LNA oligonucleotide 5′-ATTGCACT-3′ (SEQ ID NO: 3) complementary to the seed region of the miR-130/301 family (all LNA, backbone and methylation of C not given here)”, the “expression of all miR-130/301 family members” value with miR-130/301 family is listed as “down-regulated; also recorded: effective inhibitors of the entire miR-130/301 family”. Further, the number of cells result in the series with PAECs (counted each day during 3 days) is “greater decrease in the number of cells compared with anti-miR-130a”. In the series with PAECs (exponentially growing, BrdU pulse 1 h), the “BrdU incorporation (proliferation)” value is listed as “greater decrease in proliferation compared with anti-miR-130a”. Besides, the PCNA expression result in the series on PAECs (immunoblot 48 hours after transfection) is “more substantial decrease”. In addition, the “downstream gene/subordinate miRNA alterations (PPARγ, STAT3, P-STAT3, miR-204)” value in the series with PASMCs (normoxia or hypoxia, compared with anti-miR-130a) is listed as “reversed such downstream gene/subordinate miRNA alterations to a greater extent than inhibition of miR-130a alone”. The “collagen, CTGF, and LOX” value with PASMCs (tiny-LNA-130: stiffness-mediated up-regulation) is recorded as “reversed”. In the series on PASMCs (transcripts), the CCND1 expression entry is “decreased”; the “CDKN1A, CDKN1B and CDKN2A expression” value is “increased”. Moreover, in the series on PASMCs (transcripts 48 h after transfection), the “NFATC2 and PIM1 expression” value was “decreased”.

The record behind these values is patent publication US20170226507A1, “COORDINATE CONTROL OF PATHOGENIC SIGNALING BY THE MIR-130/301 FAMILY IN PULMONARY HYPERTENSION AND FIBROPROLIFERATIVE DISEASES” (The Brigham and Women's Hospital, Inc., priority 2014, published 2017).
